Legend:
RBC membranes = experiment: X-ray diffraction of RBC/aspirin complexes (multi-lamellar RBC membranes on silicon wafers); set-up: species or system human
Source text: X-ray scattering data was obtained using the Biological Large Angle Diffraction Experiment (BLADE) in the Laboratory for Membrane and Protein Dynamics at McMaster University. BLADE uses a 9 kW (45 kV, 200 mA) CuKα rotating anode at a wavelength of 1.5418 Å. Both source and detector are mounted on movable arms such that the membranes stay horizontal during the measurements. Focusing multi-layer optics provides a high intensity parallel beam with monochromatic X-ray intensities up to 10^10 counts/(mm^2·s). This beam geometry provides optimal illumination of the solid supported membrane samples to maximize the scattering signal. Note that there is no risk of sample damage using this in-house technique because of the large beam size and relatively low intensity of the X-ray beam as compared to synchrotron sources. The result of an X-ray experiment is a 2-dimensional intensity map of a large area of the reciprocal space, as sketched in FIG. 5. The corresponding real-space length scales are determined by d=2π/ ? and cover length scales from about 2.5 to 100 Å. All scans were measured at 28° C. and 50% relative humidity (RH) hydration. As depicted in FIG. 5a), the wafers were oriented in the X-ray diffractometer, such that the q∥-axis probed lateral structure, parallel to the wafer surface, and the perpendicular axis, qz, probed out-of-plane structure, perpendicular to the substrate. The out-of-plane structure of the membrane was determined using specular reflectivity. The relative electron density, ρ(z), is approximated by a 1-dimensional Fourier analysis. [formula] N is the highest order of the Bragg peaks observed in the experiment. The integrated peak intensities, I, are multiplied by q, to receive the form factors, F(q,). The bilayer form factor F(qz), which is in general a complex quantity, is real-valued in the case of centro-symmetry. The phase problem of crystallography, therefore, simplifies to the sign problem F(qz)=±|F(qz)| and the phases, ν, can only take the values±1. The phases, ν, are needed to reconstruct the electron density profile from the scattering data following Eq. (1). When the membrane form factor F(qz) is measured at several qz values, a continuous function, T(qz), which is proportional to F(qz), can be fitted to the data. Once an analytical expression for T(qz) has been determined from fitting the experimental peak intensities, the phases ν, can be assessed from T(qz). The phase array ν, =[−1−1 1−1 1] was used for all samples. The electron densities determined by Eq. (1) are on a relative scale. In order to compare the electron densities in FIGS. 6c) and 7c), ρ in the membrane centre at z=0 was set to 0 and the electron density at the boundaries (z values between 25 and 30 Å depending on the lamellar spacing), which probe the water layer between the stacked membranes, were scaled to the electron density of water of ρ=0.33 e^−/Å^3. In order to prepare complexes of RBC membranes containing increasing amounts of aspirin, a solution of 9 mg/mL acetylsalicylic acid (molecular weight 180 g/mol) in 18.2 MΩ·cm water was prepared. 2 μL, 3 μL, 4 μL, 5 μL, and 6 μL of this solution were added to 100 μL of the final ghosts solution resulting in acetylsalicylic acid concentrations of 1 mM, 1.5 mM, 2 mM, 2.5 mM and 3 mM. The resulting solutions were applied onto silicon wafers and dried slowly and incubated for 5 days following the above protocol. The in-plane peaks are the result of a hexagonal packing of the lipid tails in the hydrophobic membrane core (planar group p6). The distance between two acyl tails is determined to be α=4π/(√3q), where q∥ is the position of the corresponding correlation peak. The area per lipid chain is obtained to AT=(√3/2) α^2 Lipid tail distances in lo and ld domains and lipid tail areas are listed in Table 1. […]

[1] = system: human red blood cell membranes; experiment: HBLOC sensor: cyclic voltammetry with ferricyanide on RBC membrane-coated nanostructured gold electrodes; conditions: ferricyanide redox indicator, FIG. 10
Source text: Inventors have developed a method which isolates human red blood cells on a silicon chip for use as a safe and quantitative test for hemolytic bacteria. To develop our human blood cells on a chip, a sample of human blood is exposed to a hypotonic solution which causes the RBC's to burst and empty their contents. A series of sonication and washing steps are then applied to isolate only the RBC membrane, and to remove all hemoglobin and other contaminants. The result is a solution of empty membrane sacks known as RBC “ghosts”. This solution is then applied to sensors and allowed to slowly dry, leaving behind stacked sheets of RBC membrane. The sensors use nanostructured gold electrodes, functionalized for the application of the RBC membranes and maximizing the surface area for increased sensitivity of the tests. The coated electrodes are then used as part of a 3-electrode electrochemical cell, where any damage to the cell membrane allows a redox-indicator in solution to access the electrode surface. Under cyclic voltammetry or chronoamperometry measurements the reduction/oxidation of the indicator molecule gives rise to a current that is proportional to the amount of membrane damage. […] Membrane damage was quantitatively measured using ferricyanide as the redox indicator and cyclic voltammetry. […]

Compound	ASA concentration at which lamellar spacing and membrane thickness of lo and ld domains coincide (RBC membranes; 0-3 mM ASA series) [mM]	effect on lamellar spacing and membrane thickness of ld lipid domains (RBC membranes; 1-3 mM ASA)	overall lamellar spacing of the RBC membranes (RBC membranes; ASA concentration of 2.5 mM) [Å]	overall membrane thickness (RBC membranes; ASA concentration of 2.5 mM) [Å]	domain preference of the interaction with RBC membranes (RBC membranes; electron densities of lo and ld domains, 1 mM ASA)	effect on lipid spacing in the ld domain (RBC membranes; in presence of aspirin)	distance between lipids alo in lo domains (RBC membranes; in presence of aspirin, increase from 4.69 Å in pure RBC membranes) [Å]	lipid tail area in lo domains (RBC membranes; in presence of aspirin, increase from 19.04 Å^2 in pure RBC membranes) [Å^2]	effect on lipid domain sizes (RBC membranes; increasing ASA content)	effect on peptide domain size (RBC membranes; increasing ASA content)	location of aspirin in the membrane (|z| of increased electron density, head group region) (RBC membranes; lo lipid domains, RBC membranes + 1 mM ASA vs pure RBC membrane) [Å]	membrane damage: reduction and oxidation peak currents [1]
CC(=O)Oc1ccccc1C(=O)O [aspirin, acetylsalicylic acid]	2.5	not affected	53.4	41.8	preferably interacts with lo regions	unchanged	4.85	20.37	approximately independent of aspirin concentration	slight increase in peptide domain size	~22.8	–
CCCCCCCCCCCCOS(=O)(=O)[O-].[Na+] [SDS, sodium dodecyl sulfate]	–	–	–	–	–	–	–	–	–	–	–	increases in the reduction and oxidation peak currents

Source: patent US11577248B2, “Biological membrane-based sensor” (McMaster University, priority 2017, dated 2023)
